Like-named read-outs stand apart in the source and are kept apart here.
Biological target: T1, SIRT1 (Homo sapiens, UniProt Q96EB6)
T1 sequence (Q96EB6 1-747): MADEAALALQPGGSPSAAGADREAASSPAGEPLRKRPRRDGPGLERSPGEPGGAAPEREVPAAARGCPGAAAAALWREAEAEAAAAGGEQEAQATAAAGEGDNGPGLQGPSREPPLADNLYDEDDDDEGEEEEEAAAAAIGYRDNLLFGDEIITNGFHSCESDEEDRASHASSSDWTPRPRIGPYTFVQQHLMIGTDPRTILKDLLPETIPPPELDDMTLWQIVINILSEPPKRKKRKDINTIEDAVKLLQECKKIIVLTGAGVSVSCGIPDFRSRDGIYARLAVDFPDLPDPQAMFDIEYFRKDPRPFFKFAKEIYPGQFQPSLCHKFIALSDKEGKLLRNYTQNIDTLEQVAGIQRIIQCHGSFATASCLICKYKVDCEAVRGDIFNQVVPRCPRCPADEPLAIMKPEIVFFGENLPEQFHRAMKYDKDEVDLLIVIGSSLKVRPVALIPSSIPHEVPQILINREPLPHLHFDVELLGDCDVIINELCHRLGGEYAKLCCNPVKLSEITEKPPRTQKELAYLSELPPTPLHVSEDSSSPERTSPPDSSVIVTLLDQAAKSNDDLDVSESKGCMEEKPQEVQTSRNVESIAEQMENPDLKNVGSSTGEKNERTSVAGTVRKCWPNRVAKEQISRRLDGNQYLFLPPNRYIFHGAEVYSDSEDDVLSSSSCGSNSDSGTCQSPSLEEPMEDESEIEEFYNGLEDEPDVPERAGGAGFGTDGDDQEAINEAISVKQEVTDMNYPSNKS
Experiment: Mass spectrometry based SIRT1 deacetylase activation assay (acetylated p53-derived peptide substrate)
Format: biochemical

[1] = 0.5 μM peptide substrate, 120 μM βNAD+, 10 nM SIRT1, 25 minutes at 25° C.
[2] = 0.5 μM peptide substrate, 120 μM βNAD+, 10 nM SIRT1, 25 min at 25° C.
[3] = 0.5 μM peptide substrate, 120 μM βNAD+, 10 nM SIRT1, 25 min at 25° C., read-out: EC1.5

| SMILES | Fold Act. (percent maximum fold activation) [2] | EC1.5 [3] [nM] | EC1.5 | Fold Act. (percent maximum fold activation) | further results |
| --- | --- | --- | --- | --- | --- |
| O=C(Nc1nccs1)c1cncc2nc(-c3ccc(OC[C@H](O)CO)cc3C(F)F)[nH]c12 [Compound 808] |  |  |  |  | EC1.5 [1]: A (EC1.5<1.0 uM); Fold Act. (percent maximum fold activation) [1]: A (Fold activation >200%) |
| O=C(Nc1cccc2[nH]c(-c3ccccc3C(F)(F)F)nc12)c1cccnc1 [Compound 365] |  |  | B (EC1.5 1-25 uM) | A (Fold activation >200%) |  |
| O=C(Nc1nccs1)c1cccc2[nH]c(-c3c(F)cccc3C(F)(F)F)nc12 [Compound 264] |  |  | B (EC1.5 1-25 uM) | A (Fold activation >200%) |  |
| O=C(Nc1nccs1)c1cccc2[nH]c(-c3ccccc3OCCN3CCNCC3)nc12 [Compound 483] | A (Fold activation >200%) | 1000 to 25000 |  |  |  |
| O=C(Nc1nccs1)c1cccc2[nH]c(-c3ccc(N4CC[C@H](F)C4)cc3C(F)F)nc12 [Compound 731] |  |  |  |  | EC1.5 [1]: A (EC1.5<1.0 uM); Fold Act. (percent maximum fold activation) [1]: A (Fold activation >200%) |
| O=C(Nc1cccc(OC2CCNCC2)c1)c1cccc2[nH]c(-c3cc(F)ccc3C(F)(F)F)nc12 [Compound 525] | A (Fold activation >200%) | < 1000 |  |  |  |
| O=C(Nc1nccs1)c1cccc2[nH]c(-c3ccncc3)nc12 [Compound 237] |  |  | B (EC1.5 1-25 uM) | B (Fold Activation <200%) |  |
| C[C@@H]1CN(c2ccc(-c3nc4c(C(=O)Nc5cccnc5)cccc4[nH]3)c(C(F)(F)F)c2)C[C@H](C)O1 [Compound 604] |  |  |  |  | EC1.5 [1]: A (EC1.5<1.0 uM); Fold Act. (percent maximum fold activation) [1]: A (Fold activation >200%) |
| COCCN1CCN(c2cccc(-c3nc4c(C(=O)Nc5nccs5)cccc4[nH]3)c2)CC1 [Compound 710] |  |  |  |  | EC1.5 [1]: A (EC1.5<1.0 uM); Fold Act. (percent maximum fold activation) [1]: A (Fold activation >200%) |
| O=C(NC1CCNCC1)c1cccc2[nH]c(-c3ccc(F)cc3C(F)(F)F)nc12 [Compound 454] | B (Fold Activation <200%) | > 25000 |  |  |  |
| O=C(Nc1cccc(OC2CCNCC2)c1)c1cccc2[nH]c(-c3ccccc3C(F)(F)F)nc12 [Compound 597] | A (Fold activation >200%) | < 1000 |  |  |  |
| Cc1ccc(OCCN2CCOCC2)c(-c2nc3c(C(=O)Nc4nccs4)cccc3[nH]2)c1 [Compound 545] | A (Fold activation >200%) | < 1000 |  |  |  |
| Cc1cnc(NC(=O)c2cccc3[nH]c(-c4cnccc4C(F)(F)F)nc23)s1 [Compound 703, N-(5-methylthiazol-2-yl)-2-(4-(trifluoromethyl)pyridin-3-yl)-1H-benzo[d]imidazole-4-carboxamide] |  |  |  |  | EC1.5 [1]: A (EC1.5<1.0 uM); Fold Act. (percent maximum fold activation) [1]: A (Fold activation >200%) |
| Cc1nc(NC(=O)c2cccc3[nH]c(-c4ccccc4OCCN4CCOCC4)nc23)sc1C [Compound 476] | A (Fold activation >200%) | 1000 to 25000 |  |  |  |
| O=C(Nc1nccs1)c1cccc2[nH]c(-c3cn4ccsc4n3)nc12 [Compound 400] | A (Fold activation >200%) | < 1000 |  |  |  |
| O=C(Nc1nccs1)c1cccc2[nH]c(-c3cccc(Cl)c3)nc12 [Compound 219] |  |  | B (EC1.5 1-25 uM) | A (Fold activation >200%) |  |

| SMILES | Fold Act. (percent maximum fold activation) [2] | EC1.5 [3] [nM] | EC1.5 | Fold Act. (percent maximum fold activation) | further results |
| --- | --- | --- | --- | --- | --- |
| O=C(Nc1nccs1)c1cccc2[nH]c(-c3cccc(OCC(O)CO)c3)nc12 (stereo not drawn) [Compound 324, 2-(3-(2,3-dihydroxypropoxy)phenyl)-N-(thiazol-2-yl)-1H-benzo[d]imidazole-4-carboxamide] |  |  | A (EC1.5<1.0 uM) | A (Fold activation >200%) |  |
| CS(=O)(=O)c1ccc(F)cc1-c1nc2c(C(=O)Nc3ccccn3)cccc2[nH]1 [Compound 658] |  |  |  |  | EC1.5 [1]: A (EC1.5<1.0 uM); Fold Act. (percent maximum fold activation) [1]: A (Fold activation >200%) |
| O=C(Nc1cccc(OC[C@H](O)CO)c1)c1cccc2[nH]c(-c3cc(F)ccc3F)nc12 [Compound 785] |  |  |  |  | EC1.5 [1]: A (EC1.5<1.0 uM); Fold Act. (percent maximum fold activation) [1]: A (Fold activation >200%) |
| O=C(Nc1nccs1)c1cccc2[nH]c(-c3cccc(OC(F)(F)F)c3)nc12 [Compound 204] |  |  | A (EC1.5<1.0 uM) | A (Fold activation >200%) |  |
| O=C(Nc1cc[nH]n1)c1cccc2[nH]c(-c3cccc(C(F)(F)F)c3)nc12 [Compound 207] |  |  | B (EC1.5 1-25 uM) | A (Fold activation >200%) |  |
| Cc1cc(NC(=O)c2cccc3[nH]c(-c4cccc(N5CCOCC5)c4)nc23)no1 [Compound 469] | A (Fold activation >200%) | 1000 to 25000 |  |  |  |
| O=C(Nc1nccs1)c1cccc2[nH]c(-c3nccs3)nc12 [Compound 238] |  |  | B (EC1.5 1-25 uM) | B (Fold Activation <200%) |  |
| O=C(Nc1cnccn1)c1cccc2[nH]c(-c3cccc(N4CCOCC4)c3)nc12 [Compound 297] |  |  | A (EC1.5<1.0 uM) | A (Fold activation >200%) |  |
| O=C(Nc1ccc(CN2CCNCC2)cn1)c1cccc2[nH]c(-c3ccccc3C(F)(F)F)nc12 [Compound 621, N-(5-(piperazin-1-ylmethyl)pyridin-2-yl)-2-(2-(trifluoromethyl)phenyl)-1H-benzo[d]imidazole-4-carboxamide] |  |  |  |  | EC1.5 [1]: A (EC1.5<1.0 uM); Fold Act. (percent maximum fold activation) [1]: A (Fold activation >200%) |
| O=C(Nc1nccs1)c1cccc2[nH]c(-c3ccc(OCC(O)CO)cc3)nc12 (stereo not drawn) [Compound 325] |  |  | A (EC1.5<1.0 uM) | A (Fold activation >200%) |  |
| Cc1nc(NC(=O)c2cccc3[nH]c(-c4ccnn4-c4ccccc4)nc23)sc1C [Compound 395] |  |  | A (EC1.5<1.0 uM) | A (Fold activation >200%) |  |
| O=C(Nc1cccc(OCC(O)CO)c1)c1cccc2[nH]c(-c3ccc(Cl)cc3C(F)(F)F)nc12 (stereo not drawn) [Compound 678] |  |  |  |  | EC1.5 [1]: A (EC1.5<1.0 uM); Fold Act. (percent maximum fold activation) [1]: A (Fold activation >200%) |
| Cc1cnc(NC(=O)c2cncc3[nH]c(-c4ccc(Cl)cc4C(F)(F)F)nc23)s1 [Compound 652] |  |  |  |  | EC1.5 [1]: A (EC1.5<1.0 uM); Fold Act. (percent maximum fold activation) [1]: A (Fold activation >200%) |
| O=C(Nc1cccc(CN2CCOCC2)n1)c1cccc2[nH]c(-c3cccc(Cl)c3)nc12 [Compound 853] |  |  |  |  | EC1.5 [1]: A (EC1.5<1.0 uM); Fold Act. (percent maximum fold activation) [1]: A (Fold activation >200%) |
| Cc1cnc(NC(=O)c2cccc3[nH]c(-c4c(C(F)(F)F)nn(C)c4Cl)nc23)s1 [Compound 495] | A (Fold activation >200%) | < 1000 |  |  |  |
| O=C(Nc1ccccn1)c1cc(F)cc2nc(-c3ccccc3C(F)F)[nH]c12 [Compound 834] |  |  |  |  | EC1.5 [1]: A (EC1.5<1.0 uM); Fold Act. (percent maximum fold activation) [1]: A (Fold activation >200%) |

Now from value to compound, other results behind:

| Fold Act. (percent maximum fold activation) [2] | EC1.5 [3] [nM] | EC1.5 | Fold Act. (percent maximum fold activation) | SMILES | further results |
| --- | --- | --- | --- | --- | --- |
| A (Fold activation >200%) | < 1000 |  |  | O=C(Nc1ccccn1)c1cccc2[nH]c(-c3ccc(F)cc3C(F)F)nc12 [Compound 561] |  |
|  |  | B (EC1.5 1-25 uM) | A (Fold activation >200%) | O=C(Nc1nccs1)c1cccc2[nH]c(-c3ccccc3)nc12 [Compound 200] |  |
| A (Fold activation >200%) | 1000 to 25000 |  |  | O=C(Nc1ccccn1)c1cccc2[nH]c(-c3cccc(OC4CCNC4)c3)nc12 (stereo not drawn) [Compound 463] |  |
|  |  | A (EC1.5<1.0 uM) | A (Fold activation >200%) | O=C(Nc1nccs1)c1cccc2[nH]c(-c3ccccc3C(F)(F)F)nc12 [Compound 208, N-(thiazol-2-yl)-2-(2-(trifluoromethyl)phenyl)-1H-benzo[d]imidazole-4-carboxamide] |  |
| A (Fold activation >200%) | < 1000 |  |  | O=C(Nc1ccccn1)c1cccc2[nH]c(-c3ccc(OC[C@@H](O)CO)cc3C(F)F)nc12 [Compound 596] |  |
| A (Fold activation >200%) | 1000 to 25000 |  |  | O=C(Nc1ccccn1)c1cccc2[nH]c(-c3ccccc3OC3CCNCC3)nc12 [Compound 538] |  |
|  |  | A (EC1.5<1.0 uM) | A (Fold activation >200%) | O=C(Nc1cc[n+]([O-])cc1)c1cccc2[nH]c(-c3cc(F)ccc3C(F)(F)F)nc12 [Compound 322] |  |
| A (Fold activation >200%) | 1000 to 25000 |  |  | CS(=O)(=O)c1ccccc1-c1nc2c(C(=O)Nc3nccs3)cccc2[nH]1 [Compound 517] |  |
| A (Fold activation >200%) | 1000 to 25000 |  |  | CS(=O)(=O)c1ccc(-c2nc3c(C(=O)Nc4ccccn4)cccc3[nH]2)cc1 [Compound 406] |  |
| A (Fold activation >200%) | < 1000 |  |  | Cc1nc(-c2ccccc2)sc1-c1nc2c(C(=O)Nc3ccccn3)cccc2[nH]1 [Compound 409] |  |

— patent US8846947B2, “Benzimidazoles and related analogs as sirtuin modulators” (GlaxoSmithKline LLC, priority 2008, dated 2014)
